Series [1] has as its target T1, CamA (Clostridioides difficile, UniProt Q183J3).
T1 construct: gene CD630_27580; full length, 577 residues; N-terminal His-SUMO tag cut by ULP protease leaving His-Met; E. coli Rosetta, plasmid pXC2184; active as monomer
Briefly: isothermal titration calorimetry, one-site fit. The series is classed as binding.

Series [2] has as its target T1, CamA. Briefly: MTase-Glo luminescence assay of SAH formation. The series is classed as biochemical. To be noted: 20 µM dsDNA substrate (CAAAAA site), 50 nM CamA, 100 mM NaCl, 20 mM Tris-HCl pH 7.5, ~22 °C, 2.5 min.
Series [3] addresses T2, CamA SeMet (Clostridioides difficile 630, UniProt Q183J3 1-577).
T2 sequence: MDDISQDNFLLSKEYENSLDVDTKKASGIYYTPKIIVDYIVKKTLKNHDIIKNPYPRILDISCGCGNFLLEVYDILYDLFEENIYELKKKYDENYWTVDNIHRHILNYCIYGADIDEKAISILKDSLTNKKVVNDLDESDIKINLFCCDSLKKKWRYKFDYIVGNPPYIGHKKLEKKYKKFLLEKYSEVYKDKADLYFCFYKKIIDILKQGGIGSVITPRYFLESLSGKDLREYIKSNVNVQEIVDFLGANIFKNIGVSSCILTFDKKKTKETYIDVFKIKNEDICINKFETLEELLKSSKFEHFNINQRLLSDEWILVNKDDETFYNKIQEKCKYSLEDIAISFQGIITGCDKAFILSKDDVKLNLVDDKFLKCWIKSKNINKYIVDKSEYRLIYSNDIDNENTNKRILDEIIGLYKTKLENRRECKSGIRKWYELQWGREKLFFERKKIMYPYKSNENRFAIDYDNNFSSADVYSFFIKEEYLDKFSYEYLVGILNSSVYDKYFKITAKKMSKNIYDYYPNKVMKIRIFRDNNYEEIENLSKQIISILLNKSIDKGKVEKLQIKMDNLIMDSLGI
The series can be described thus: X-ray crystallography; no cofactor; ITC at 25 C: 200 uM DNA into 18-20 uM CamA, 20 mM HEPES pH 8.0, 0.5 mM TCEP, 5% glycerol, 150 or 250 mM NaCl (cofactor comparison at 250 mM NaCl). To be noted: protein: recombinant; tags: His-SUMO cleaved, leaves N-terminal His-Met; 5' overhang 1 nt at each end (T / A).

Series [4] concerns the target T3, CamA (Clostridioides difficile 630, UniProt Q183J3 1-577).
T3 sequence: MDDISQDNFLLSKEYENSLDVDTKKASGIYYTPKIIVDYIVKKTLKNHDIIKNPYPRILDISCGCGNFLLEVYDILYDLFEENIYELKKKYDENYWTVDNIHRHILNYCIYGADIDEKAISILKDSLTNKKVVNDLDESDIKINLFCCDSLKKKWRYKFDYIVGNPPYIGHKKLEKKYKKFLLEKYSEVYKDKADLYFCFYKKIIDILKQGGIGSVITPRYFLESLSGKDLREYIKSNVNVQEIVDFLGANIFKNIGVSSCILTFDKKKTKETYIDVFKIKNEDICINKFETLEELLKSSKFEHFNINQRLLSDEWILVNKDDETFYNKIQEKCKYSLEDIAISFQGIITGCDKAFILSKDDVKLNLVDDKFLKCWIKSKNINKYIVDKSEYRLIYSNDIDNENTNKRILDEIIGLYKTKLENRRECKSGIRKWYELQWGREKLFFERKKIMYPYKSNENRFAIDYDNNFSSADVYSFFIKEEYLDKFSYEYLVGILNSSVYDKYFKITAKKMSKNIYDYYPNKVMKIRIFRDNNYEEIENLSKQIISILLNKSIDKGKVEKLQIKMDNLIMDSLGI
The series can be described thus: X-ray crystallography; no cofactor bound (SAH dissociated); 2.68 A; ITC at 25 C: 200 uM DNA into 18-20 uM CamA, 20 mM HEPES pH 8.0, 0.5 mM TCEP, 5% glycerol, 150 or 250 mM NaCl (cofactor comparison at 250 mM NaCl). Particulars: protein: recombinant; tags: His-SUMO cleaved, leaves N-terminal His-Met; 5' overhang 1 nt at each end (T / A).

One may read the Kd as the constant that tells how readily two partners part at equilibrium. Read a high Kd as a looser complex. As a reminder, the Km is the substrate concentration at which the rate is half of its maximum.

For `Nc1ncnc2c1ncn2[C@@H]1O[C@H](CSCC[C@H](N)C(=O)O)[C@@H](O)[C@H]1O` [SAH], in series [1], binding was characterised by a dissociation constant (Kd) of 8 µM.

Molecule `C[S+](CC[C@H](N)C(=O)O)C[C@H]1O[C@@H](n2cnc3c(N)ncnc32)[C@H](O)[C@@H]1O` (stereo partly drawn) [SAM] gave a Kd in series [1] of 23 to 35 µM. The Km in series [2] was > 17 µM.

On to `Nc1ncnc2c1ncn2[C@@H]1O[C@H](C[C@@H](N)CC[C@H](N)C(=O)O)[C@@H](O)[C@H]1O` [sinefungin], for which the affinity in series [1], expressed as Kd, was 19 µM.

B1: co-crystal DNA 13 bp + overhangs (dsDNA)
DNA 1: TTCAAAAAGTCCCA
DNA 2: ATGGGACTTTTTGA
Regarding B1, the binding result in series [3] and in series [4] was “binds” throughout.
